# Where a name gives a salt, the structure may show the parent alone.
# Target: T1, HCV polymerase (Hepatitis C virus genotype 1b, UniProt P26663)
# T1 construct: a region encoding NS5B (J Virol 1991 March, 65(3), 1105-13, 544 amino acids after deletion of 47 amino acids on the C-terminal); 6xHis (C); made in house; host or cells: Escherichia coli
# Test: biochemical
# Set-up: species or system HCV BK strain
# Details: not given
# Excerpt: The evaluation of the HCV polymerase inhibitory activity of the compound of the present invention is explained in the following. This polymerase is an enzyme coded for by the non-structural protein region called NS5B on the genome RNA of HCV (EMBO J., 15:12-22, 1996).
# Using, as a template, a cDNA clone corresponding to the full length genome RNA of HCV BK strain obtained from the blood of a patient with hepatitis C, a region encoding NS5B (J Virol 1991 March, 65(3), 1105-13, 544 amino acids after deletion of 47 amino acids on the C-terminal) was amplified by PCR. The objective gene was prepared by adding a 6 His tag {base pair encoding 6 continuous histidine (His)}to the 3′ end thereof and transformed to Escherichia coli. The Escherichia coli capable of producing the objective protein was cultured. The obtained cells were suspended in a buffer solution and crushed in a microfluidizer.
# Using a synthetic primer designed based on the sequence of HCV genomic 3′ untranslated region, a DNA fragment (148 bp) containing polyU and 3′X sequence was entirely synthesized and cloned into plasmid pBluescript SK II(+) (Stratagene). The cDNA encoding full length NS5B, which was prepared in i) above, was digested with restriction enzyme KpnI to give a cDNA fragment containing the nucleotide sequence of from the restriction enzyme cleavage site to the termination codon. This cDNA fragment was inserted into the upstream of 3′ untranslated region of the DNA in pBluescript SK II(+) and ligated. The about 450 bp inserted DNA sequence was used as a template in the preparation of substrate RNA.
# RNA was synthesized (37° C., 3 hr) by run-off method using this purified DNA as a template, a promoter of pBluescript SK II(+), MEGAscript RNA synthesis kit (Ambion) and T7 RNA polymerase. DNase I was added and the mixture was incubated for 1 hr. The template DNA was removed by decomposition to give a crude RNA product.
# A test substance (compound of the present invention) and a reaction mixture (30 μl) having the following composition were reacted at 25° C. for 90 min.
# 10% Trichloroacetic acid at 4° C. and 1% sodium pyrophosphate solution (150 μl) were added to this reaction mixture to stop the reaction. The reaction mixture was left standing in ice for 15 min to insolubilize RNA. This RNA was trapped on a glass filter (Whatman GF/C and the like) upon filtration by suction. This filter was washed with a solution containing 1% trichloroacetic acid and 0.1% sodium pyrophosphate, washed with 90% ethanol and dried. A liquid scintillation cocktail (Packard) was added and the radioactivity of RNA synthesized by the enzyme reaction was measured on a liquid scintillation counter.
# The HCV polymerase inhibitory activity (IC50) of the compound of the present invention was calculated from the values of radioactivity of the enzyme reaction with and without the test substance.
# Reaction mixture: HCV polymerase (0.5 μg/ml) obtained in i), substrate RNA (5 μg/ml) obtained in ii), ATP (50 μM), GTP (50 μM), CTP ([…]), UTP (2 μM), [5,6-^3H]UTP (46 Ci/mmol (Amersham), 1 μCi) 20 mM Tris-HCl (pH 7.5), EDTA (1 mM), MgCl2 (5 mM), NaCl (50 mM), DTT (1 mM), BSA (0.01%)
# T1 sequence (P26663 2420-2963): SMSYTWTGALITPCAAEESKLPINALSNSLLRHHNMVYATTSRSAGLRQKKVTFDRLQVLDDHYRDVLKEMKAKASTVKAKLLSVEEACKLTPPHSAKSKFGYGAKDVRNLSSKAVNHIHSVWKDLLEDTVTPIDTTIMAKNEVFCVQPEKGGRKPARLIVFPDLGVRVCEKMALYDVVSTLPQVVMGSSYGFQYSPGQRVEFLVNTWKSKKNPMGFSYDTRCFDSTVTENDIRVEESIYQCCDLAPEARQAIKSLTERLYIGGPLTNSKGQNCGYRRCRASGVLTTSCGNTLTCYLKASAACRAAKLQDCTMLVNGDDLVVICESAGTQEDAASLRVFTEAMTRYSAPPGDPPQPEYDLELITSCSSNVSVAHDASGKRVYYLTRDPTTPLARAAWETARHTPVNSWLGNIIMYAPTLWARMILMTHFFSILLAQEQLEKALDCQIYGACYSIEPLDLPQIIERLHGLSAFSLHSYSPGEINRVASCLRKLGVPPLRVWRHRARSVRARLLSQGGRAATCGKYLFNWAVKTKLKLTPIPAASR
row,Structure (SMILES),IC50
1,"COc1ccc2c(c1)OCCn1c-2c(C2CCCCC2)c2ccc(C(=O)N[C@@H](Cc3ccc(NC(=O)OCc4ccccc4)cc3)C(=O)O)cc21 [Example 2-318, (S)-3-(4-benzyloxycarbonylaminophenyl)-2-[(12-cyclohexyl-3-methoxy-6,7-dihydro-5-oxa-7a-azadibenzo[a,e]azulene-9-carbonyl)amino]propionic acid]",< 100 nM
2,"CSc1ccc2c(c1)N(CCCN1CCCCC1)CCn1c-2c(C2CCCCC2)c2ccc(C(=O)O)cc21 [Example 1-297, 13-cyclohexyl-3-methylsulfanyl-5-[3-(piperidin-1-yl)propyl]-6,7-dihydro-5H-benzo[5,6][1,4]diazepino[7,1-a]indole-10-carboxylic acid dihydrochloride]",< 100 nM
3,"CCOc1ccc2c(c1)N(C)CCn1c-2c(C2CCCCC2)c2ccc(C(=O)NC3(C(=O)Nc4ccc(/C=C/C(=O)O)cc4OC)CCC3)cc21 [Example 1-617, (E)-3-[4-({1-[(13-cyclohexyl-3-ethoxy-5-methyl-6,7-dihydro-5H-benzo[5,6][1,4]diazepino[7,1-a]indole-10-carbonyl)amino]cyclobutanecarbonyl}amino)-3-methoxyphenyl]acrylic acid]",< 100 nM
4,"O=C1CCN(CCN2CCn3c(c(C4CCCCC4)c4ccc(C(=O)O)cc43)-c3ccccc32)CCN1 [Example 1-519, 13-cyclohexyl-5-[2-(5-oxo-1,4-diazepan-1-yl)ethyl]-6,7-dihydro-5H-benzo[5,6][1,4]diazepino[7,1-a]indole-10-carboxylic acid dihydrochloride]",< 100 nM
5,"CC(C)N1CCN(CCN2CCn3c(c(C4CCCCC4)c4ccc(C(=O)O)cc43)-c3ccccc32)CC1 [Example 1-48, 13-cyclohexyl-5-[2-(4-isopropylpiperazin-1-yl)ethyl]-6,7-dihydro-5H-benzo[5,6][1,4]diazepino[7,1-a]indole-10-carboxylic acid trihydrochloride]",< 100 nM
6,"CCN(CCCN1CCn2c(c(C3CCCCC3)c3ccc(C(=O)O)cc32)-c2ccc(C)cc21)CCOC [Example 1-511, 13-cyclohexyl-5-{3-[N-ethyl-N-(2-methoxyethyl)amino]propyl}-3-methyl-6,7-dihydro-5H-benzo[5,6][1,4]diazepino[7,1-a]indole-10-carboxylic acid dihydrochloride]",< 100 nM
7,"CCOc1ccc2c(c1)N(C)CCn1c-2c(C2CCCCC2)c2ccc(C(=O)NC(C)(C)C(=O)Nc3ccc(/C=C/C(=O)O)cc3)cc21 [Example 1-615, (E)-3-(4-{2-[(13-cyclohexyl-3-ethoxy-5-methyl-6,7-dihydro-5H-benzo[5,6][1,4]diazepino[7,1-a]indole-10-carbonyl)amino]-2-methylpropionylamino}phenyl)acrylic acid]",< 100 nM
8,"CCCN(C)CCN1CCn2c(c(C3CCCCC3)c3ccc(C(=O)O)cc32)-c2ccccc21 [Example 1-198, 13-cyclohexyl-5-[2-(N-methyl-N-propylamino)ethyl]-6,7-dihydro-5H-benzo[5,6][1,4]diazepino[7,1-a]indole-10-carboxylic acid dihydrochloride]",< 100 nM
9,"CNC(=O)c1ccc2c(C3CCCCC3)c3n(c2c1)CCN(CC(=O)N1CCN(S(C)(=O)=O)CC1)c1cc(C)ccc1-3 [Example 1-573, N-methyl-13-cyclohexyl-5-[2-(4-methanesulfonylpiperazin-1-yl)-2-oxoethyl]-3-methyl-6,7-dihydro-5H-benzo[5,6][1,4]diazepino[7,1-a]indole-10-carboxamide]",< 100 nM
10,"COc1ccc2c(c1)OCCn1c-2c(C2CCCCC2)c2ccc(C(=O)N[C@@H](Cc3ccc(OCc4ccccc4)cc3)c3nccs3)cc21 [Example 2-369, N—(S)-[2-(4-benzyloxyphenyl)-1-(thiazol-2-yl)ethyl]-12-cyclohexyl-3-methoxy-6,7-dihydro-5-oxa-7a-azadibenzo[a,e]azulene-9-carboxamide]",< 100 nM
11,"CCOc1ccc2c(c1)N(C)CCn1c-2c(C2CCCCC2)c2ccc(C(=O)NC3(C(=O)Nc4cccc(/C=C/C(=O)O)c4)CCC3)cc21 [Example 1-616, (E)-3-[3-({1-[(13-cyclohexyl-3-ethoxy-5-methyl-6,7-dihydro-5H-benzo[5,6][1,4]diazepino[7,1-a]indole-10-carbonyl)amino]cyclobutanecarbonyl}amino)phenyl]acrylic acid]",< 100 nM
12,"Cc1ccc2c(c1)N(CCN1CCC[C@@H](CCN(C)C(=O)N(C)C)C1)CCn1c-2c(C2CCCCC2)c2ccc(C(=O)O)cc21 [Example 1-559, 13-cyclohexyl-3-methyl-5-(2-{(S)-3-[2-(trimethylureido)ethyl]piperidin-1-yl}ethyl)-6,7-dihydro-5H-benzo[5,6][1,4]diazepino[7,1-a]indole-10-carboxylic acid dihydrochloride]",< 100 nM
13,"CCN(CCCN1CCCCC1)c1cccc2c1OCCn1c-2c(C2CCCCC2)c2ccc(C(=O)O)cc21 [Example 2-169, 12-cyclohexyl-4-{N-ethyl-N-[3-(piperidin-1-yl)propyl]amino}-6,7-dihydro-5-oxa-7a-azadibenzo[a,e]azulene-9-carboxylic acid dihydrochloride]",< 100 nM
14,"COC1CCN(C(=O)C(C)(C)NC(=O)c2ccc3c(C4CCCCC4)c4n(c3c2)CCOc2ccccc2-4)CC1 [Example 2-294, N-[2-(4-methoxypiperidin-1-yl)-1,1-dimethyl-2-oxoethyl]-12-cyclohexyl-6,7-dihydro-5-oxa-7a-azadibenzo[a,e]azulene-9-carboxamide]",< 100 nM
15,"Cc1noc(C)c1COc1ccc2c(c1)N(CCN(C)C)CCn1c-2c(C2CCCCC2)c2ccc(C(=O)O)cc21 [Example 1-535, 13-cyclohexyl-5-(2-dimethylaminoethyl)-3-(3,5-dimethylisoxazol-4-ylmethoxy)-6,7-dihydro-5H-benzo[5,6][1,4]diazepino[7,1-a]indole-10-carboxylic acid dihydrochloride]",< 100 nM
16,"O=C(O)c1ccc2c(C3CCCCC3)c3n(c2c1)CCN(CCc1ccccn1)c1ccccc1-3 [Example 1-163, 13-cyclohexyl-5-[2-(pyridin-2-yl)ethyl]-6,7-dihydro-5H-benzo[5,6][1,4]diazepino[7,1-a]indole-10-carboxylic acid dihydrochloride]",< 100 nM
17,"CN(C)CCN1CCn2c(c(C3CCCCC3)c3ccc(C(=O)O)cc32)-c2ccccc21 [Example 1-99, 13-cyclohexyl-5-(2-dimethylaminoethyl)-6,7-dihydro-5H-benzo[5,6][1,4]diazepino[7,1-a]indole-10-carboxylic acid dihydrochloride]",< 100 nM
18,"CCN(CC)CCCCN1CCn2c(c(C3CCCCC3)c3ccc(C(=O)O)cc32)-c2ccc(C)cc21 [Example 1-493, 13-cyclohexyl-5-(4-diethylaminobutyl)-3-methyl-6,7-dihydro-5H-benzo[5,6][1,4]diazepino[7,1-a]indole-10-carboxylic-acid dihydrochloride]",< 100 nM
19,"O=C(O)c1ccc2c(C3CCCCC3)c3n(c2c1)CCN(CCN1CCC[C@@H](CCOc2ccccc2)C1)c1ccccc1-3 [Example 1-444, 13-cyclohexyl-5-{2-[(S)-3-(2-phenoxyethyl)piperidin-1-yl]ethyl}-6,7-dihydro-5H-benzo[5,6][1,4]diazepino[7,1-a]indole-10-carboxylic acid dihydrochloride]",< 100 nM
20,"CC(C)(CN1CCC(O)CC1)NC(=O)c1ccc2c(C3CCCCC3)c3n(c2c1)CCOc1ccccc1-3 [Example 2-234, N-[2-(4-hydroxypiperidin-1-yl)-1,1-dimethylethyl]-12-cyclohexyl-6,7-dihydro-5-oxa-7a-azadibenzo[a,e]azulene-9-carboxamide]",100 to 1000 nM

# Same assay, conditions: 25° C., 90 min; [5,6-3H]UTP incorporation into RNA; read-out: HCV polymerase inhibitory activity IC50
row,Structure (SMILES),IC50
1,"O=C(O)c1ccc2c(C3CCCCC3)c3n(c2c1)CCN(CCN1CCOCC1)c1cc(Cl)ccc1-3 [Example 1-79, 3-chloro-13-cyclohexyl-5-[2-(morpholin-4-yl)ethyl]-6,7-dihydro-5H-benzo[5,6][1,4]diazepino[7,1-a]indole-10-carboxylic acid dihydrochloride]",< 100 nM
